These results are taken from ChEMBL document CHEMBL1125442, “Amide bond replacements incorporated into CCK-B selective "dipeptoids"” (J Med Chem, 1992).

A short description of test [1]: Selectivity ratio defined as the ratio of IC50(CCK-A)/IC50(CCK-B).
The target in test [2] is Cholecystokinin receptor type A (Rattus norvegicus) (UniProt P30551). Nature of the test: Inhibition of [125I]CCK-8 binding to cholecystokinin type A receptor in the rat pancreas.
For test [3], the target named is Gastrin/cholecystokinin type B receptor (Mus musculus) (UniProt P56481). Nature of the test: Inhibition of [125I]CCK-8 binding to cholecystokinin type B receptor in the mouse cerebral cortex.

Values joined by “and” are separate entries in the source; they are usually repeats but may differ in a detail not shown here. Identical values can stand only once.

With `COC(=O)CCC(=O)N[C@H](COC(=O)C(C)(Cc1c[nH]c2ccccc12)NC(=O)OC1[C@H]2C[C@@H]3C[C@@H](C[C@H]1C3)C2)c1ccccc1` (some centres not stated), the Ratio in test [1] was determined as 4.9. In addition, the IC50 (in general, the concentration at which inhibition is half-maximal) in test [2] amounted to 351 nM; in test [3], 71.2 nM.

Take `CC(Cc1c[nH]c2ccccc12)(CN(CCc1ccccc1)C(=O)CCC(=O)O)NC(=O)OC1[C@H]2C[C@@H]3C[C@@H](C[C@H]1C3)C2` (some centres not stated): the Ratio in test [1] was 0.85. The figures for the IC50 in test [2] and in test [3] were 1080 nM and 1270 nM, respectively.

Turning to `CN(CCc1ccccc1)C(=O)C(C)(Cc1c[nH]c2ccccc12)NC(=O)OC1[C@H]2C[C@@H]3C[C@@H](C[C@H]1C3)C2` (some centres not stated), the Ratio in test [1] came out at 6.2. The 50% inhibitory concentration (IC50) in test [2] turned out to be 757 nM; in test [3], 123 nM.

On to `O=C(NC(Cc1c[nH]c2ccccc12)C(=O)NC(CO)Cc1ccccc1)OC1[C@H]2C[C@@H]3C[C@@H](C[C@H]1C3)C2` (some centres not stated), for which, in test [1], the Ratio came to 1.3. For the same molecule, the concentration for half-maximal inhibition (IC50) was 1080 nM in test [2] and 852 nM in test [3].

As to `O=C(NC(Cc1c[nH]c2ccccc12)C(=S)NC(CO)Cc1ccccc1)OC1[C@H]2C[C@@H]3C[C@@H](C[C@H]1C3)C2` (some centres not stated), the half-inhibitory concentration (IC50) in test [2] turned out to be 1980 nM; in test [3] it was 1590 nM.

In the case of `CC(Cc1c[nH]c2ccccc12)(NC(=O)OC1[C@H]2C[C@@H]3C[C@@H](C[C@H]1C3)C2)/C(S)=N/CCc1ccccc1` (some centres not stated), in test [1], the Ratio is 1.9.

Regarding `CCOC(=O)CCCCCC(=O)N(CCc1ccccc1)CC(C)(Cc1c[nH]c2ccccc12)NC(=O)OC1[C@H]2C[C@@H]3C[C@@H](C[C@H]1C3)C2` (some centres not stated), the Ratio in test [1] turned out to be 4.1. Also, the IC50 in test [2] was found to be 3530 nM; in test [3], 863 nM.

For the molecule `O=C(NC(Cc1c[nH]c2ccccc12)C(=O)OC(CO)Cc1ccccc1)OC1[C@H]2C[C@@H]3C[C@@H](C[C@H]1C3)C2` (some centres not stated), in test [1], the Ratio was 1.6. The IC50 in test [2] is 2950 nM; in test [3] it was 1890 nM.

In the case of `O=C(NC(Cc1c[nH]c2ccccc12)/C(S)=N/C(CO)Cc1ccccc1)OC1[C@H]2C[C@@H]3C[C@@H](C[C@H]1C3)C2` (some centres not stated), the Ratio in test [1] stood at 1.2.

On to `CC(Cc1c[nH]c2ccccc12)(NC(=O)OC1[C@H]2C[C@@H]3C[C@@H](C[C@H]1C3)C2)C(O)CCCc1ccccc1` (some centres not stated) [listing 1 of 3 here], for which the concentration for half-maximal inhibition (IC50) in test [2] is 2620 nM; in test [3] it was 1970 nM.

For the molecule `CC(Cc1c[nH]c2ccccc12)(NC(=O)OC1[C@H]2C[C@@H]3C[C@@H](C[C@H]1C3)C2)C(=O)OCCc1ccccc1` (some centres not stated), the Ratio in test [1] was 2. Further, the figures for the concentration for half-maximal inhibition (IC50) in test [2] and in test [3] were 1070 nM and 547 nM, respectively.

As for `CC(Cc1c[nH]c2ccccc12)(NC(=O)OC1[C@H]2C[C@@H]3C[C@@H](C[C@H]1C3)C2)C(=O)SCCc1ccccc1` (some centres not stated), the Ratio in test [1] was found to be 1.3. For the same molecule, the 50% inhibitory concentration (IC50) in test [2] worked out at 1190 nM; in test [3], 932 nM.

For the molecule `CC(Cc1c[nH]c2ccccc12)(NC(=O)OC1[C@H]2C[C@@H]3C[C@@H](C[C@H]1C3)C2)C(O)CCCc1ccccc1` (some centres not stated) [listing 2 of 3 here], in test [1], the Ratio is 1.3 and 2.1.

Regarding `CN(C(=O)C(Cc1c[nH]c2ccccc12)NC(=O)OC1[C@H]2C[C@@H]3C[C@@H](C[C@H]1C3)C2)C(CO)Cc1ccccc1` (some centres not stated), the Ratio in test [1] was found to be 0.74. The IC50 in test [2] is 1080 nM; in test [3] it was 1460 nM.

Turning to `CCOC(=O)CCC(=O)N(CCc1ccccc1)CC(C)(Cc1c[nH]c2ccccc12)NC(=O)OC1[C@H]2C[C@@H]3C[C@@H](C[C@H]1C3)C2` (some centres not stated), in test [1], the Ratio worked out at 2.3. Also, the 50% inhibitory concentration (IC50) in test [2] was found to be 670 nM; in test [3], 1630 nM.

Turning to `CC(Cc1c[nH]c2ccccc12)(NC(=O)OC1[C@H]2C[C@@H]3C[C@@H](C[C@H]1C3)C2)C(=S)NCCc1ccccc1` (some centres not stated), the values for the half-inhibitory concentration (IC50) in test [2] and in test [3] were 1500 nM and 808 nM, respectively.

Regarding `O=C(NC(CNC(CO)Cc1ccccc1)Cc1c[nH]c2ccccc12)OC1[C@H]2C[C@@H]3C[C@@H](C[C@H]1C3)C2` (some centres not stated), the Ratio in test [1] turned out to be 0.11. For the same molecule, the IC50 came out at 1250 nM in test [2] and 11500 nM in test [3].

As to `CC(Cc1c[nH]c2ccccc12)(NC(=O)OC1[C@H]2C[C@@H]3C[C@@H](C[C@H]1C3)C2)C(O)CCCc1ccccc1` (some centres not stated) [listing 3 of 3 here], the values for the concentration for half-maximal inhibition (IC50) in test [2] and in test [3] were 1230 nM and 595 nM, respectively.

Consider `CC(CCCCc1ccccc1)(Cc1c[nH]c2ccccc12)NC(=O)OC1[C@H]2C[C@@H]3C[C@@H](C[C@H]1C3)C2` (some centres not stated), for which, in test [1], the Ratio is 2.2. Moreover, the half-inhibitory concentration (IC50) turned out to be 19500 nM in test [2] and 8690 nM in test [3].
